Assay results: article PMC8622152, “Expression Profile and Ligand Screening of a Putative Odorant-Binding Protein, AcerOBP6, from the Asian Honeybee” (Insects, 2021)
pIC50, pKi: −log10 of the molar value. “Also recorded” adds a separate entry of the source. Read-outs that look alike come from different tables or passages of the source.

Legend:
antennae of forager bees = assay: EAG assay based on RNAi (dsOBP6 feeding); design: species or system Apis cerana cerana; details: for change of EAG response in dsOBP6 group versus controls: 48 h after feeding dsOBP6-2 dsRNA, p < 0.05
Protocol: The plasmid extracted in Section 2.3 was used as a template to generate 2 dsRNA fragments of AcerOBP6. Meanwhile, dsRNA was synthesized using a T7 RiboMAX™ Express RNAi System (Promega, Madison, WI, USA); the primers used for dsRNA generating are listed in Table S1. The final concentration of dsRNA generation was diluted to 2.5 μg/μL. The concentration and integrity of dsRNA were determined using NanoDrop and agarose gel electrophoresis (1%). Forager bees were collected and fed with AcerOBP6 dsRNA (8 μg for each bee), and then maintained in an artificial climate incubator (65–75% RH; 28 ± 0.4 °C). At the same time, the GFP dsRNA and 30% sugar were employed as the control groups. Each experiment group included 30 bees, and 3 biological repeats were performed. At times of 24, 48, and 96 h after feeding, the RNAi effects were verified by qRT-PCR.
The antennae of forager bees were dissected from the bottom and immediately fixed to both sides of a two-pronged electrode using Spectra 360 electrode gel (Parker Laboratories Inc., Fairfield, NJ, USA). The odorants were dissolved in liquid paraffin to final concentrations of 300 μg/μL, and liquid paraffin was adopted as a blank control. A filter paper strip (3 cm × 1cm) filled with 10 μL tested solution was prepared and put into the tube of Pasteur Pipette, which was connected with the gas feeder equipment. The stimulation time of each odor was 0.5 s and the interval was 30 s. Three technical repetitions were carried out, and ten antennae of female adults were tested for each compound. Finally, the EAGPro software (Syntech) was used to analyze the EAG response recordings.

AcerOBP6 = AcerOBP6 (Apis cerana cerana, UniProt A0A2A3ES84); type: binding; details: for binding affinity with AcerOBP6 (in words): competitive binding with 1-NPN, ligand up to 10 µM; for pKi: Ki = [IC50]/(1 + [1-NPN]/K1-NPN), read-out: Ki (dissociation constant); for pKi / pIC50: AcerOBP6 1 µM, 1-NPN 1 µM; for pIC50: concentration of ligand displacing 50% 1-NPN, ligand 1-10 µM, short dash: not possible to calculate the IC50 value
AcerOBP6, sequence (A0A2A3ES84 entry or part of it): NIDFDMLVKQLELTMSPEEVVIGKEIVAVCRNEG
Protocol: Afterwards, the fluorescent probe N-phenyl-1-naphthylamine (1–NPN) was dissolved in methanol to yield a 1 mM stock solution. […] The binding constant of 1-NPN to AcerOBP6 (K1–NPN) was calculated using Scatchard plots of the binding data in GraphPad Prism 8.0.
Taking 1–NPN as the fluorescent reporter, we measured the binding affinity of each odorant by competitive binding assays using. All the 33 ligands (listed in Table S2) were dissolved in spectrally pure grade methanol. We titrated the odorants in a solution containing AcerOBP6 protein (1 μM) and 1–NPN (1 μM) to the final concentrations of 1–10 μM, respectively.

In the case of `CCCCCCCCCO` [1-Nonanol], the “change of EAG response in dsOBP6 group versus controls” value (“change of EAG response” for short) (antennae of forager bees) was “significantly decreased”.
With `CCCCCC(C)=O` [2-Heptanone] the “change of EAG response” value (antennae of forager bees) was “significantly decreased; also recorded: significant change” and the “EAG response of worker bee antennae” value (antennae of forager bees; odorant 300 µg/µL in liquid paraffin, 10 µL on filter paper, 0.5 s stimulation) was “strongest response; also recorded: strong EAG responses”.
`CCOC(=O)/C=C/c1ccccc1` [Ethyl cinnamate] was tested, and the “binding affinity with AcerOBP6 (in words)” value (from here on “binding affinity”) (AcerOBP6) was “could not bind or had a weak binding affinity”.
In the case of `CCCCC/C=C\C/C=C\CCCCCCCC(=O)OCC` [Ethyl linoleate], the “binding affinity” value (AcerOBP6) was “could not bind or had a weak binding affinity”.
With `CCCCCCCC/C=C\CCCCCCCC(=O)OCC` [Ethyl oleate] the “binding affinity” value (AcerOBP6) was “could not bind or had a weak binding affinity”.
Compound `CCOC(=O)/C=C/c1ccccc1` [Ethyl-trans-cinnamate] has a pKi (AcerOBP6; listed as ethyl-trans-cinnamate) of 5.43, a pKi (AcerOBP6) of 5.43 and a pIC50 (AcerOBP6) of 5.41.
`CC12CCC(CC1)C(C)(C)O2` [Eucalyptol] was tested, and the “change of EAG response” value (antennae of forager bees) was “significantly decreased”.
`CC(=O)OCCC(C)C` [Isoamyl acetate] was tested, and the “binding affinity” value (AcerOBP6) was “could not bind or had a weak binding affinity”.
`C=CC(C)(O)CCC=C(C)C` (centres unmarked) [Linalool] was tested, and the “change of EAG response” value (antennae of forager bees) was “significantly decreased”.
With `CC/C=C\C/C=C\C/C=C\CCCCCCCC(=O)OC` [Methyl linolenate] the “binding affinity” value (AcerOBP6) was “could not bind or had a weak binding affinity”.
For `CCCCCCCC/C=C\CCCCCCCC(=O)OC` [Methyl oleate], the “binding affinity” value (AcerOBP6) was “could not bind or had a weak binding affinity”.
For `CCCCCCCCCCCCCCCC(=O)OC` [Methyl palmitate], the “binding affinity” value (AcerOBP6) was “could not bind or had a weak binding affinity” and the pIC50 (AcerOBP6) was less than 5.00.
In the case of `CCCCCCCCCCCCCCCCCC(=O)OC` [Methyl stearate], the “binding affinity” value (AcerOBP6) was “could not bind or had a weak binding affinity”.
`C=CC(=C)CCC=C(C)C` [Myrcene] was tested, and the “change of EAG response” value (antennae of forager bees) was “significantly decreased”.
For `CCCCCCOC(C)=O` [hexyl acetate], the “change of EAG response” value (antennae of forager bees) was “significantly decreased”.
In the case of `C/C1=C\CC/C(C)=C/CC(C)(C)/C=C/C1` [α-caryophllene], the “binding affinity” value (AcerOBP6) was “could not bind or had a weak binding affinity” and the pIC50 (AcerOBP6) was less than 5.00.
`CC/C=C\C/C=C\C/C=C\CCCCCCCC(=O)OCC` [α-ethyl linolenic] was tested, and the “binding affinity” value (AcerOBP6) was “could not bind or had a weak binding affinity” and the pIC50 (AcerOBP6) was less than 5.00.
`C=C/C(C)=C/C/C=C(\C)CCC=C(C)C` [α-farnesene] was tested, and the “binding affinity” value (AcerOBP6) was “could not bind or had a weak binding affinity” and the pIC50 (AcerOBP6) was less than 5.00.
For `C=C/C(C)=C/CC=C(C)C` [β-ocimene], the pKi (AcerOBP6) was 5.28, the pIC50 (AcerOBP6) was 5.26 and the “change of EAG response” value (antennae of forager bees) was “significantly decreased”.
In the case of (+) -Cinene, the pKi (AcerOBP6) was 5.28, the pIC50 (AcerOBP6) was 5.26 and the “change of EAG response” value (antennae of forager bees) was “significantly decreased”.
In the case of -Ionone, the pKi (AcerOBP6) was 5.29 and the pIC50 (AcerOBP6) was 5.26.
In the case of -Pinene, the pKi (AcerOBP6) was 5.20 and the pIC50 (AcerOBP6) was 5.18.
